Laboratory results taken from PubChem BioAssay AID1996.
Values after ≈ are worked out from the molar mass of the structure shown.

Settings: buffer; pH 7.4; 200.0 µM

| Structure (SMILES) | solubility kinetic |
| --- | --- |
| COC(=O)c1ccc(COc2ccc(/C=N/O)cc2OC)o1 | > 45.8 µg/mL |
| COc1ccccc1N1C(=O)CSC1=S | 3.4 µg/mL (≈ 14.2 µM) |
| Cc1c2c(nc3ccccc13)CC(C)(C)CC2=O.Cl | 36.8 µg/mL |
| CC(C)c1ccc(CNC(=O)C(=O)NCCCn2ccnc2)cc1 | 45.4 µg/mL (≈ 138 µM) |
| CC1(C(=O)Nc2nc3ccc(S(C)(=O)=O)cc3s2)CC1(Cl)Cl (stereo unspecified) | 52.1 µg/mL (≈ 137 µM) |
| COc1ccccc1-n1c(SCC(=O)O)nc2sc3c(c2c1=O)CCC3 | 41.8 µg/mL (≈ 108 µM) |
| O=C(Cn1ccccc1=O)c1ccc(Cl)cc1 | 31.4 µg/mL (≈ 127 µM) |
| Cc1cc(C)nc(NC(=S)Nc2ccccc2)n1 | 0.3 µg/mL (≈ 1.16 µM) |
| CC#CC[N+](C)(C)CC(=O)c1ccccc1.[Br-] | > 44.4 µg/mL |
| O=C(NCCCSc1ccccc1)c1cc(Cl)ccc1O | 0.9 µg/mL (≈ 2.8 µM) |
| COc1ccc(CCn2c(C)c(C(C)=O)c(C(C)=O)c2C)cc1OC | > 51.5 µg/mL |
| NC(=O)Cn1cc(C(=O)c2ccccc2)c2ccccc21 | 10.8 µg/mL (≈ 38.8 µM) |
| O=C(COC(=O)c1ccc(F)c(S(=O)(=O)N2CCOCC2)c1)c1ccccc1 | 6.3 µg/mL (≈ 15.5 µM) |
| CSc1ccc(CN2CCCCCC2)cc1 | 22.1 µg/mL (≈ 93.9 µM) |
| CC(=O)N=c1sc(S(N)(=O)=O)nn1C | > 35.4 µg/mL |
| COc1cc(OC)nc(Oc2cc(C=O)ccc2OC)n1 | > 43.5 µg/mL |
| O=c1c2ccccc2nc(-c2ccccc2)n1-c1ccccc1 | 43.6 µg/mL (≈ 146 µM) |
| COc1cccc(OCC(O)CNC(C)c2ccccc2)c1.Cl (stereo unspecified) | 49.1 µg/mL |
| Cc1ccc(C)c(-c2csc(NC(=O)c3c(C)noc3C)n2)c1 | 2.1 µg/mL (≈ 6.41 µM) |
| Cc1ccc(S(=O)(=O)N2CCCCC2)cc1NC(=O)C1CC1 | > 48.4 µg/mL |
| Nc1nc(-c2ccc(NC(=O)c3ccco3)cc2)cs1 | > 42.8 µg/mL |

| Structure (SMILES) | solubility kinetic |
| --- | --- |
| COc1ccc(C(=O)Nc2cccc(S(=O)(=O)N(C)C)c2)cc1S(=O)(=O)N1CCOCC1 | 12.3 µg/mL (≈ 25.4 µM) |
| Cc1cccc(Nc2ccncc2S(=O)(=O)NC(=O)NC(C)C)c1 | > 52.3 µg/mL |
| COc1ccc(NC(=O)CCC(=O)c2cccs2)cc1Cl | 6.5 µg/mL (≈ 20.1 µM) |
| COc1ccc(Cn2cc([N+](=O)[O-])nc2C)cc1[N+](=O)[O-] | > 43.8 µg/mL |
| CN(C)C(=O)C1CCC(=O)N1Cc1cccs1 (stereo unspecified) | > 37.8 µg/mL |
| O=C(Nc1nccs1)c1cc2cc(Cl)ccc2oc1=O | 1.5 µg/mL (≈ 4.89 µM) |
| O=C(NCc1ccc(F)cc1)c1cc2ccccc2o1 | 34.9 µg/mL (≈ 130 µM) |
| CCOC(=O)C1=C(CC)Nc2ccccc2N/C1=N\S(=O)(=O)c1cccc(C(C)=O)c1 | > 66.2 µg/mL |
| N#Cc1c(-c2ccc(Cl)cc2)cc(-c2cccs2)nc1SCC(=O)O | 13.2 µg/mL (≈ 34.1 µM) |
| NC(=O)C(c1ccccc1)c1ccc(C(=O)c2ccccc2)cc1 (stereo unspecified) | < 0.7 µg/mL |
| CC(C)(C)C(=O)O/N=C(\N)c1ccc(Br)cc1 | 30.3 µg/mL (≈ 101 µM) |
| COc1ccnc2c1c(=O)n(Cc1ccc(F)cc1)c(=O)n2C | 25.2 µg/mL (≈ 79.9 µM) |
| COc1ccccc1N1CCN(Cc2ccc(C(=O)O)cc2)CC1 | 42.2 µg/mL (≈ 129 µM) |
| CCOc1ccc(C(=O)n2cc(C(=O)OC)c3ccccc32)cc1 | < 0.7 µg/mL |
| O=C1COc2ccc(C(=O)COC(=O)c3ccccc3Cl)cc2N1 | 4.5 µg/mL (≈ 13 µM) |
| COc1ccc(OC)c(-c2cc(-c3cccnc3)nc(N)c2C#N)c1 | 1.7 µg/mL (≈ 5.11 µM) |
| Cc1cc(NC(=O)CSc2ccc(F)cc2)no1 | > 39.9 µg/mL |
| CCN(CC(=O)NC1CC1)S(=O)(=O)c1ccc(OC)cc1 | > 46.9 µg/mL |
| COc1ccc(NC(=S)NCCN2CCC(C)CC2)cc1 | > 46.1 µg/mL |
| Cc1cccc2nc3c(nc12)-c1ccccc1C3=O | 0.5 µg/mL (≈ 2.03 µM) |
| O=C(Nc1ccccc1)O/N=C/c1ccc(F)cc1 | 12.8 µg/mL (≈ 49.6 µM) |

| Structure (SMILES) | solubility kinetic |
| --- | --- |
| Cc1sc2ncnc(SCC(=O)NC(C)(C)C)c2c1C | 19.3 µg/mL (≈ 62.4 µM) |
| Cc1cccc(Nc2nc(C)cc(C)n2)c1.Cl | 20.1 µg/mL |
| Nc1cc(=O)[nH]c(SCC(=O)Nc2cccc(Cl)c2Cl)n1 | 8.4 µg/mL (≈ 24.3 µM) |
| O=C(NC1CCCCC1)c1cccc(S(=O)(=O)N2CCCCC2)c1 | 5.6 µg/mL (≈ 16 µM) |
| O=C(N/C=C\n1cnc2cc(C(F)(F)F)ccc21)c1ccc([N+](=O)[O-])cc1 | 2.8 µg/mL (≈ 7.44 µM) |
| O=C(COc1ccc(Cl)cc1Br)Nc1ccncc1 | 5 µg/mL (≈ 14.6 µM) |
| CN(NC(=O)c1ccccc1F)c1ccc([N+](=O)[O-])cn1 | > 43.5 µg/mL |
| CC(C)CC(=O)N1CCN(Cc2ccc(C(F)(F)F)cc2)CC1 | 47.2 µg/mL (≈ 144 µM) |
| O=C(COC(=O)/C=C/c1ccc(C(F)(F)F)cc1)NC1CCCC1 | < 0.7 µg/mL |
| Cc1cccc(N2CCN(C(=O)c3ccccn3)CC2C)c1 (stereo unspecified) | > 44.3 µg/mL |
| CCOc1ccccc1OCCCC(=O)Nc1cc(S(=O)(=O)N2CCOCC2)ccc1OC | 11.1 µg/mL (≈ 23.2 µM) |
| Cc1nc2ccccc2cc1C(=O)Nc1ccccc1Cl | 6.7 µg/mL (≈ 22.6 µM) |
| Cl.N[C@H]1C(O)O[C@H](CO)[C@@H](O)[C@@H]1O (stereo partly specified) | > 32.3 µg/mL |
| CCN(Cc1nc(-c2ccc(Cl)cc2)no1)CC1CCCO1 (stereo unspecified) | 25.8 µg/mL (≈ 80.2 µM) |
| CCOCCCNC(=O)c1cc2c(=O)n(CC)c3ccccc3c2s1 | 4.8 µg/mL (≈ 13.4 µM) |
| CCCCCC1CCC(C(=O)N2CCOCC2)CC1 (stereo unspecified) | 27.7 µg/mL (≈ 104 µM) |
| Cc1ccc(N=CC2=C(O)CC(c3ccccc3Cl)CC2=O)cc1 (stereo unspecified) | < 0.7 µg/mL |
| Cc1ccc2ncccc2c1N | > 23.7 µg/mL |
| COC(=O)CNC(=O)CSc1ccccn1 | > 36 µg/mL |
